Experimental data taken from patent publication US20230017045A1, “PYRIDINE AND PYRIMIDINE CARBOXYLATE HERBICIDES AND METHODS OF USE THEREOF” (Dow AgroSciences LLC, priority 2017, published 2023).

The compounds below were run on test plant species (assay: Post-emergent herbicidal activity test (greenhouse, foliar spray, visual growth reduction)). Conditions: post-emergence, 336 h, ALOMY: blackgrass (Alopecurus myosuroides), 140 g ai/ha, 14 days after application, read-out: Visual Growth Reduction (%) 14 Days After Application, ALOMY.
Type: in vivo
Outline: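 Greenhouse plants at first–second true leaf stage sprayed overhead at 187 L/ha with compound in acetone/water/isopropanol/DMSO/crop oil/X-77 carrier; controls received solvent blank. Injury rated visually after 14 d on a 0–100% scale versus untreated and control plants, converted to growth reduction.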

Compound	pest or weed control at 140 g/ha [%]
COC(=O)c1nc(-c2ncc(Cl)cc2Cl)ccc1Cl [F191, Methyl 3′,5,5′-trichloro-[2,2′-bipyridine]-6-carboxylate]	0 to 29
O=C(O)c1nc(-c2ccc(C(F)(F)F)cc2Cl)ccc1F [F132, 6-(2-Chloro-4-(trifluoromethyl)phenyl)-3-fluoropicolinic acid]	0 to 29

Same assay, conditions: post-emergence, 336 h, AMARE: redroot pigweed (Amaranthus retroflexus), 140 g ai/ha, 14 days after application, read-out: Visual Growth Reduction (%) 14 Days After Application, AMARE

Compound	pest or weed control at 140 g/ha [%]
COC(=O)c1nc(-c2ncc(Cl)cc2Cl)ccc1Cl [F191, Methyl 3′,5,5′-trichloro-[2,2′-bipyridine]-6-carboxylate]	85 to 94
O=C(O)c1nc(-c2ccc(C(F)(F)F)cc2Cl)ccc1F [F132, 6-(2-Chloro-4-(trifluoromethyl)phenyl)-3-fluoropicolinic acid]	95 to 100

Same assay, conditions: post-emergence, 336 h, AVEFA: wild oat (Avena fatua), 140 g ai/ha, 14 days after application, read-out: Visual Growth Reduction (%) 14 Days After Application, AVEFA

Compound	pest or weed control at 140 g/ha [%]
COC(=O)c1nc(-c2ncc(Cl)cc2Cl)ccc1Cl [F191, Methyl 3′,5,5′-trichloro-[2,2′-bipyridine]-6-carboxylate]	0 to 29
O=C(O)c1nc(-c2ccc(C(F)(F)F)cc2Cl)ccc1F [F132, 6-(2-Chloro-4-(trifluoromethyl)phenyl)-3-fluoropicolinic acid]	0 to 29

Same assay, conditions: post-emergence, 336 h, CHEAL: lambsquarters (Chenopodium album), 140 g ai/ha, 14 days after application, read-out: Visual Growth Reduction (%) 14 Days After Application, CHEAL

Compound	pest or weed control at 140 g/ha [%]
COC(=O)c1nc(-c2ncc(Cl)cc2Cl)ccc1Cl [F191, Methyl 3′,5,5′-trichloro-[2,2′-bipyridine]-6-carboxylate]	95 to 100
O=C(O)c1nc(-c2ccc(C(F)(F)F)cc2Cl)ccc1F [F132, 6-(2-Chloro-4-(trifluoromethyl)phenyl)-3-fluoropicolinic acid]	95 to 100

Same assay, conditions: post-emergence, 336 h, CIRAR: canada thistle (Cirsium arvense), 140 g ai/ha, 14 days after application, read-out: Visual Growth Reduction (%) 14 Days After Application, CIRAR

Compound	pest or weed control at 140 g/ha [%]
COC(=O)c1nc(-c2ncc(Cl)cc2Cl)ccc1Cl [F191, Methyl 3′,5,5′-trichloro-[2,2′-bipyridine]-6-carboxylate]	85 to 94
O=C(O)c1nc(-c2ccc(C(F)(F)F)cc2Cl)ccc1F [F132, 6-(2-Chloro-4-(trifluoromethyl)phenyl)-3-fluoropicolinic acid]	85 to 94

Same assay, conditions: post-emergence, 336 h, CYPES: yellow nutsedge (Cyperus esculentus), 140 g ai/ha, 14 days after application, read-out: Visual Growth Reduction (%) 14 Days After Application, CYPES

Compound	pest or weed control at 140 g/ha [%]
COC(=O)c1nc(-c2ncc(Cl)cc2Cl)ccc1Cl [F191, Methyl 3′,5,5′-trichloro-[2,2′-bipyridine]-6-carboxylate]	45 to 59
O=C(O)c1nc(-c2ccc(C(F)(F)F)cc2Cl)ccc1F [F132, 6-(2-Chloro-4-(trifluoromethyl)phenyl)-3-fluoropicolinic acid]	0 to 29

Same assay, conditions: post-emergence, 336 h, DIGSA: crabgrass (Digitaria sanguinalis), 140 g ai/ha, 14 days after application, read-out: Visual Growth Reduction (%) 14 Days After Application, DIGSA

Compound	pest or weed control at 140 g/ha [%]
COC(=O)c1nc(-c2ncc(Cl)cc2Cl)ccc1Cl [F191, Methyl 3′,5,5′-trichloro-[2,2′-bipyridine]-6-carboxylate]	85 to 94
O=C(O)c1nc(-c2ccc(C(F)(F)F)cc2Cl)ccc1F [F132, 6-(2-Chloro-4-(trifluoromethyl)phenyl)-3-fluoropicolinic acid]	75 to 84

Same assay, conditions: post-emergence, 336 h, ECHCG: barnyardgrass (Echinochloa crus-galli), 140 g ai/ha, 14 days after application, read-out: Visual Growth Reduction (%) 14 Days After Application, ECHCG

Compound	pest or weed control at 140 g/ha [%]
COC(=O)c1nc(-c2ncc(Cl)cc2Cl)ccc1Cl [F191, Methyl 3′,5,5′-trichloro-[2,2′-bipyridine]-6-carboxylate]	75 to 84
O=C(O)c1nc(-c2ccc(C(F)(F)F)cc2Cl)ccc1F [F132, 6-(2-Chloro-4-(trifluoromethyl)phenyl)-3-fluoropicolinic acid]	60 to 74

Same assay, conditions: post-emergence, 336 h, IPOHE: ivy-leaf morning glory (Ipomoea hederacea), 140 g ai/ha, 14 days after application, read-out: Visual Growth Reduction (%) 14 Days After Application, IPOHE

Compound	pest or weed control at 140 g/ha [%]
COC(=O)c1nc(-c2ncc(Cl)cc2Cl)ccc1Cl [F191, Methyl 3′,5,5′-trichloro-[2,2′-bipyridine]-6-carboxylate]	95 to 100
O=C(O)c1nc(-c2ccc(C(F)(F)F)cc2Cl)ccc1F [F132, 6-(2-Chloro-4-(trifluoromethyl)phenyl)-3-fluoropicolinic acid]	95 to 100

Same assay, conditions: post-emergence, 336 h, KCHSC: kochia (Bassia scoparia), 140 g ai/ha, 14 days after application, read-out: Visual Growth Reduction (%) 14 Days After Application, KCHSC

Compound	pest or weed control at 140 g/ha [%]
COC(=O)c1nc(-c2ncc(Cl)cc2Cl)ccc1Cl [F191, Methyl 3′,5,5′-trichloro-[2,2′-bipyridine]-6-carboxylate]	60 to 74
O=C(O)c1nc(-c2ccc(C(F)(F)F)cc2Cl)ccc1F [F132, 6-(2-Chloro-4-(trifluoromethyl)phenyl)-3-fluoropicolinic acid]	75 to 84

Same assay, conditions: post-emergence, 336 h, ORYSA: rice (Oryza sativa), 140 g ai/ha, 14 days after application, read-out: Visual Growth Reduction (%) 14 Days After Application, ORYSA

Compound	pest or weed control at 140 g/ha [%]
COC(=O)c1nc(-c2ncc(Cl)cc2Cl)ccc1Cl [F191, Methyl 3′,5,5′-trichloro-[2,2′-bipyridine]-6-carboxylate]	0 to 29
O=C(O)c1nc(-c2ccc(C(F)(F)F)cc2Cl)ccc1F [F132, 6-(2-Chloro-4-(trifluoromethyl)phenyl)-3-fluoropicolinic acid]	0 to 29

Same assay, conditions: post-emergence, 336 h, SETFA: giant foxtail (Setaria faberi), 140 g ai/ha, 14 days after application, read-out: Visual Growth Reduction (%) 14 Days After Application, SETFA

Compound	pest or weed control at 140 g/ha [%]
COC(=O)c1nc(-c2ncc(Cl)cc2Cl)ccc1Cl [F191, Methyl 3′,5,5′-trichloro-[2,2′-bipyridine]-6-carboxylate]	85 to 94
O=C(O)c1nc(-c2ccc(C(F)(F)F)cc2Cl)ccc1F [F132, 6-(2-Chloro-4-(trifluoromethyl)phenyl)-3-fluoropicolinic acid]	75 to 84

Same assay, conditions: post-emergence, 336 h, SORVU: grain sorghum (Sorghum vulgare), 140 g ai/ha, 14 days after application, read-out: Visual Growth Reduction (%) 14 Days After Application, SORVU

Compound	pest or weed control at 140 g/ha [%]
COC(=O)c1nc(-c2ncc(Cl)cc2Cl)ccc1Cl [F191, Methyl 3′,5,5′-trichloro-[2,2′-bipyridine]-6-carboxylate]	85 to 94
O=C(O)c1nc(-c2ccc(C(F)(F)F)cc2Cl)ccc1F [F132, 6-(2-Chloro-4-(trifluoromethyl)phenyl)-3-fluoropicolinic acid]	85 to 94

Same assay, conditions: post-emergence, 336 h, STEME: common chickweed (Stellaria media), 140 g ai/ha, 14 days after application, read-out: Visual Growth Reduction (%) 14 Days After Application, STEME

Compound	pest or weed control at 140 g/ha [%]
COC(=O)c1nc(-c2ncc(Cl)cc2Cl)ccc1Cl [F191, Methyl 3′,5,5′-trichloro-[2,2′-bipyridine]-6-carboxylate]	0 to 29
O=C(O)c1nc(-c2ccc(C(F)(F)F)cc2Cl)ccc1F [F132, 6-(2-Chloro-4-(trifluoromethyl)phenyl)-3-fluoropicolinic acid]	0 to 29

Same assay, conditions: post-emergence, 336 h, TRZAS: wheat, spring (Triticum aestivum), 140 g ai/ha, 14 days after application, read-out: Visual Growth Reduction (%) 14 Days After Application, TRZAS

Compound	pest or weed control at 140 g/ha [%]
COC(=O)c1nc(-c2ncc(Cl)cc2Cl)ccc1Cl [F191, Methyl 3′,5,5′-trichloro-[2,2′-bipyridine]-6-carboxylate]	0 to 29
O=C(O)c1nc(-c2ccc(C(F)(F)F)cc2Cl)ccc1F [F132, 6-(2-Chloro-4-(trifluoromethyl)phenyl)-3-fluoropicolinic acid]	0 to 29
